11 molecules from patent US6706740B2, “Fungicidal heterocyclic aromatic amides and their compositions, methods of use and preparation” (Dow AgroSciences LLC, priority 1999, dated 2004) can be followed below.

Read-outs that look alike come from different tables or passages of the source.

The test system of assay [1] is Puccinia recondita—PUCCRT. Briefly: Brown Rust of Wheat, in vivo whole plant, 24 Hour Protectant. The conditions noted are these: control of fungal infection vs untreated plants; for pest or weed control at 100 ppm: Puccinia, read-out: PUCCRT in vivo 1 Day Protectant.
The test system of assay [2] is Rhizoctonia solani (RHIZSO). Briefly: microbe, parasite or virus in culture. The conditions noted are these: for inhibition at 25 ppm: Rhizoctonia solani, read-out: RHIZSO in vitro Growth Inhibition. It is filed as cell-based.
Assay [3] has as its system Erysiphe graminis—ERYSGT. The assay is described as follows: Powdery Mildew of Wheat, in vivo whole plant, 24 Hour Protectant. Conditions: control of fungal infection vs untreated plants; for pest or weed control at 100 ppm: Erysiphe, read-out: ERYSGT in vivo 1 Day Protectant.
Assay [4] deals with Ustilago maydis (USTIMA). Briefly: microbe, parasite or virus in culture. It counts as cell-based. Conditions: for inhibition at 25 ppm: Mycosarcoma maydis, read-out: USTIMA in vitro Growth Inhibition.
Assay [5] concerns Septoria tritici—SEPTTR. The assay is described as follows: Leaf Blotch of Wheat, in vivo whole plant, 24 Hour Protectant. The conditions noted are these: control of fungal infection vs untreated plants; for pest or weed control at 100 ppm: Zymoseptoria tritici, 24 h, read-out: SEPTTR in vivo 1 Day Protectant.
In assay [6] the test system is Phytophthora infestans (PHYTIN). Briefly: microbe, parasite or virus in culture. It is filed as cell-based. The conditions noted are these: for inhibition at 25 ppm: Phytophthora infestans, read-out: PHYTIN in vitro Growth Inhibition.
Assay [7] relates to Mycosphaerella graminicola (Septoria tritici—SEPTTR). The assay is described as follows: In vitro fungal growth inhibition, Mycosphaerella graminicola (SEPTTR). It counts as cell-based. Conditions: for inhibition at 25 ppm: Zymoseptoria tritici, read-out: SEPTTR in vitro Growth Inhibition.
For assay [8], the system named is Phytophthora infestans—PHYTIN. The assay is described as follows: whole plant or invertebrate. Conditions: for pest or weed control at 100 ppm: Phytophthora, in Solanum lycopersicum, 24 h, read-out: PHYTIN in vivo 1 Day Protectant. It is filed as in vivo.
The test system of assay [9] is Magnaporthe grisea (Pyricularia oryzae—PYRIOR). The assay is described as follows: microbe, parasite or virus in culture. It counts as cell-based. The conditions noted are these: for inhibition at 25 ppm: Pyricularia oryzae, read-out: PYRIOR in vitro Growth Inhibition.
The test system of assay [10] is Stagonospora nodorum (Leptosphaeria nodorum—LEPTNO). The assay is described as follows: In vitro fungal growth inhibition, Stagonospora nodorum (LEPTNO). It counts as cell-based. The conditions noted are these: for inhibition at 25 ppm: Leptosphaeria, read-out: LEPTNO in vitro Growth Inhibition.
Assay [11] relates to Leptosphaeria nodorum—LEPTNO. Briefly: Glume Blotch of Wheat, in vivo whole plant, 24 Hour Protectant. Conditions: control of fungal infection vs untreated plants; for pest or weed control at 100 ppm: Leptosphaeria, read-out: LEPTNO in vivo 1 Day Protectant.
The mark [12] stands for this setting: wheat plants sprayed at 100 ppm, inoculated after 24 hours.
The mark [13] stands for this setting: 100 ppm spray, 24 hour protectant, wheat.
Setting [14] is: 100 ppm spray, wheat, 24 hour protectant.

One may read the inhibition as the change of the read-out against control, counted positive when it falls. Take `COc1ccnc(C(=O)N[C@@H]2OC[C@@H](OCc3ccccc3)[C@H](OCc3ccccc3)[C@H]2OCc2ccccc2)c1OC(C)=O` [Compound 592]: the pest or weed control at 100 ppm in [1] (setting [12]) was under 25%; in [3] (setting [12]) it was under 25%; in assay [5] (setting [12]), 25 to 74%; in [8] it was under 25%; in assay [11] (setting [12]) it was 25 to 74%. In addition, the inhibition at 25 ppm in [2], in assay [4], in assay [6], in [7] (25 ppm in the growth medium), in assay [9] and in assay [10] (25 ppm in the growth medium) was under 80% in each case.
Turning to `COc1ccnc(C(=O)N[C@@H]2C[C@@H](O[Si](C)(C)C(C)(C)C)O[C@@H](C)[C@@H]2OC)c1O` [Compound 326], the pest or weed control at 100 ppm in assay [1] (setting [13]) is under 25%; in assay [3] (setting [13]), under 25%; in [8], under 25%; in [11] (setting [13]), 25 to 74%. In addition, the inhibition at 25 ppm in assay [2], in assay [4], in assay [6], in assay [7], in assay [9] and in assay [10] was under 80% each time. For the same molecule, in assay [5] (setting [13]), the “SEPTTR in vivo 1 Day Protectant” value is reported as “+ +”.
As for `COc1ccnc(C(=O)N[C@H]2COC(=O)[C@H](Cc3ccccc3)[C@@H](OC(=O)C3CCCCC3)[C@H](C)OC2=O)c1O` [Compound 392], the pest or weed control at 100 ppm in assay [1] (setting [14]) was 25 to 74%; in assay [3] (setting [14]) it was 25 to 74%; in assay [5] (setting [14]) it was 25 to 74%; in assay [8], under 25%. In addition, the inhibition at 25 ppm in assay [2] is under 80%; in [4] it was under 80%; in [6], under 80%; in assay [7] (25 ppm in growth medium), over 80%; in assay [9], over 80%; in [10] (25 ppm in growth medium), over 80%. Further, the “LEPTNO in vivo 1 Day Protectant” value in [11] (setting [14]) is “+ +”.
For the molecule `COc1ccccc1Oc1cccc(NC(=O)c2nccc(OC)c2O)c1` [Compound 430], the pest or weed control at 100 ppm is under 25% in assay [1] (setting [14]); under 25% in [3] (setting [14]); under 25% in assay [5] (setting [14]); 25 to 74% in assay [8]; under 25% in [11] (setting [14]). The inhibition at 25 ppm in [2], in assay [4], in assay [6], in [7] (25 ppm in growth medium), in [9] and in [10] (25 ppm in growth medium) was under 80% each time.
For `COc1ccnc(C(=O)NC2COC(C)C2)c1O` (stereo not shown) [Compound 310], the pest or weed control at 100 ppm was under 25% in [1] (setting [13]); 25 to 74% in assay [3] (setting [13]); under 25% in assay [5] (setting [13]); under 25% in [8]; under 25% in [11] (setting [13]). For the same molecule, the inhibition at 25 ppm in assay [2], in assay [4], in assay [6], in [7] (25 ppm in growth medium), in assay [9] and in assay [10] (25 ppm in growth medium) was under 80% throughout.
On to `COc1ccnc(C(=O)Nc2ccc(Oc3ccc(C#N)cc3)cc2)c1O` [Compound 422], for which the pest or weed control at 100 ppm in [1] (setting [14]) was under 25%; in [3] (setting [14]), under 25%; in assay [5] (setting [14]), under 25%; in assay [8] it was 25 to 74%; in [11] (setting [14]), under 25%. The inhibition at 25 ppm in assay [2] is under 80%; in assay [4], under 80%; in assay [6], under 80%; in assay [7] (25 ppm in growth medium), under 80%; in assay [9], over 80%; in assay [10] (25 ppm in growth medium), under 80%.
As to `COc1ccnc(C(=O)NC/C=C(\C)CCC=C(C)C)c1O` [Compound 242], the pest or weed control at 100 ppm is under 25% in assay [1] (setting [13]); under 25% in [3] (setting [13]); 25 to 74% in [5] (setting [13]); under 25% in assay [8]; under 25% in assay [11] (setting [13]). The inhibition at 25 ppm in [2], in [4], in [6], in [7] (25 ppm in growth medium), in [9] and in assay [10] (25 ppm in growth medium) was over 80% throughout.
Turning to `COc1ccccc1Oc1ccc(NC(=O)c2nccc(OC)c2O)cc1` [Compound 433], the pest or weed control at 100 ppm in [1] (setting [14]), in assay [3] (setting [14]), in assay [5] (setting [14]), in assay [8] and in assay [11] (setting [14]) was under 25% each time. Further, the inhibition at 25 ppm in assay [2] is under 80%; in [4], under 80%; in [6] it was under 80%; in assay [7] (25 ppm in growth medium), over 80%; in assay [9], under 80%; in assay [10] (25 ppm in growth medium) it was under 80%.
In the case of `COc1ccnc(C(=O)Nc2ccc(Oc3cccc(Cl)c3)cc2)c1O` [Compound 442], the pest or weed control at 100 ppm in assay [1] (setting [14]) was 25 to 74%; in assay [3] (setting [14]), under 25%; in assay [5] (setting [14]), under 25%; in assay [8] it was 25 to 74%; in [11] (setting [14]), under 25%. Besides, the inhibition at 25 ppm in [2] is under 80%; in assay [4], under 80%; in [6] it was under 80%; in [7] (25 ppm in growth medium), over 80%; in [9] it was over 80%; in assay [10] (25 ppm in growth medium), over 80%.
In the case of `COc1ccnc(C(=O)NC(COC(=O)CCc2ccccc2)C(=O)OC(C)COC(=O)C(C)C)c1O` (stereo not shown) [Compound 359], in assay [1] (setting [14]), the “PUCCRT in vivo 1 Day Protectant” value is on record as “+ +”. The “RHIZSO in vitro Growth Inhibition” value in assay [2] is listed as “− (key: +: at least 80% growth inhibition; −: less than 80% growth inhibition)”. For the same molecule, the “ERYSGT in vivo 1 Day Protectant” value in [3] (setting [14]) is “− (<25% control of fungal infection)”. In addition, the “USTIMA in vitro Growth Inhibition” value in assay [4] is listed as “− (key: +: at least 80% growth inhibition; −: less than 80% growth inhibition)”. Further, the “SEPTTR in vivo 1 Day Protectant” value in assay [5] (setting [14]) was “+ +”. For the same molecule, the “PHYTIN in vitro Growth Inhibition” value in assay [6] (25 ppm in growth medium) is “− (less than 80% growth inhibition)”. In addition, the “SEPTTR in vitro Growth Inhibition” value in assay [7] (25 ppm in growth medium) was “− (less than 80% growth inhibition)”. The “PHYTIN in vivo 1 Day Protectant” value in [8] (100 ppm spray, tomato, 24 hour protectant, control of fungal infection vs untreated plants) is “− (<25% control of fungal infection)”. In addition, in assay [9] (25 ppm in growth medium), the “PYRIOR in vitro Growth Inhibition” value is “− (less than 80% growth inhibition)”. In addition, the “LEPTNO in vitro Growth Inhibition” value in assay [10] (25 ppm in growth medium) is recorded as “− (less than 80% growth inhibition)”. Moreover, in assay [11] (setting [14]), the “LEPTNO in vivo 1 Day Protectant” value is on record as “+ (25-74% control of fungal infection)”.
Take `COc1ccnc(C(=O)NC2CC(C)(C)C=CC=C2C)c1OC(C)=O` (stereo not shown) [Compound 579]: the pest or weed control at 100 ppm in assay [1] (setting [12]), in assay [3] (setting [12]), in [8] and in assay [11] (setting [12]) was under 25% in each case. Moreover, the inhibition at 25 ppm in assay [2], in assay [4], in [6], in assay [7] (25 ppm in the growth medium), in assay [9] and in assay [10] (25 ppm in the growth medium) was under 80% each time. For the same molecule, the “SEPTTR in vivo 1 Day Protectant” value in assay [5] (setting [12]) is on record as “+ +”.
